Measured values published in paper PMC2654064, “S9, a Novel Anticancer Agent, Exerts Its Anti-Proliferative Activity by Interfering with Both PI3K-Akt-mTOR Signaling and Microtubule Cytoskeleton” (PLoS ONE, 2009).
Where two headings read alike, the source gives them in different places. Blank lines part the entries; values can stand above or below the molecule they belong to.

Experiments:
Hep-G2 = test: cells; parameters: SRB anti-proliferation assay against a panel of human tumour cell lines; settings: Homo sapiens, HepG2
Method: (§1) The anti-proliferative activity of S9 was measured with SRB assay against a panel of human tumor cells, including oral epidermoid cancer, lung cancer, liver cancer, colon cancer, rhabdomyosarcoma, ovarian cancer, osteosarcoma, breast cancer, cervix cancer, stomach cancer, prostate cancer and leukemia cells. […] This advantage was also observed in the mini-set of colon cancer cell lines (Fig. 6A). […] A) Antiproliferative activity of S9 and wortmannin against a wide panel of tumor cell lines. IC50s plotted as mean±SD (µM) were from three separate experiments. B) Resistance factor (RF) of S9 and reference compounds in drug-resistant cancer cells. RF was calculated as the ratio of the IC50 value of the drug-resistant cells to that of the corresponding parental cells. C) S9 induces rapid apoptosis in human cancer cells. Rh30, A375, MKN-28 and U2OS cells were treated with S9 for 8 h. Apoptosis was measured by Annexin V-PI double staining. Apoptosis measured as Annexin-V positive cells were plotted. Data shown were mean±SD from three independent experiments. D) Rh30 (left panel) and SMMC7721 (right panel) xenograft growth inhibition after administration of S9. Rh30 and SMMC7721 nude mice were subcutaneously inoculated with a tumor fragment. The animals were randomly divided in groups when tumor volume reached 100 to 200 mm^3 and received i.p. injection of normal saline or S9 five times a week for two weeks. Tumor volumes were measured and relative tumor volumes were calculated as tumor volumeDn/tumor volumeD0. Data shown are the mean of six mice. Human colorectal carcinoma LOVO, human breast carcinoma MDA-MB-468, human prostate carcinoma PC3, human osteosarcoma U2OS cells were from American Type Culture Collection (ATCC, Manassas, VA); human lung adenocarcinoma NCI-H23 cells were obtained from the National Cancer Institute (NCI); rhabdomyosarcoma (RMS) Rh30 cells were generous gift from Dr. P.J. Houghton (St. Jude Children's Research Hospital, Memphis, TN). MDA-MB-468, Rh30, LOVO, NCI-H23 and U2OS cells were grown in RPMI-1640 medium supplemented with 10% (v/v) fetal bovine serum (FBS; GIBCO, Grand Island, NY), 2 mM L-glutamine, 100 U/ml benzylpenicillin, 100 µg/ml streptomycin and 10 mM HEPES (pH 7.4). PC3 cells were grown in Ham's F12 (GIBCO, Grand Island, NY) with 10% FBS. CHO (pCORON1000-EGFP-Akt) was purchased from GE Healthcare (EGFP: Enhanced Green Fluorescence Protein) and propagated in F-12 Ham medium with Glutamax supplemented with 10% FBS, penicillin-streptomycin (50 U/ml) and geneticin (0.5 mg/ml, Sigma-Aldrich, St. Louis, MO). Rest of cells used in this study were grown as described previously. All cells were cultured in a highly humidified atmosphere containing 5% CO2 at 37°C.

NCI-H23 = test: cells; parameters: SRB anti-proliferation assay against a panel of human tumour cell lines; settings: Homo sapiens, NCI-H23
Method: as §1

Rh30 = test: cells; parameters: SRB anti-proliferation assay against a panel of human tumour cell lines; settings: Rh30
Method: as §1

A549 = test: cells; parameters: SRB anti-proliferation assay against a panel of human tumour cell lines; settings: Homo sapiens, A549
Method: as §1

MDA-MB-468 = test: cells; parameters: SRB anti-proliferation assay against a panel of human tumour cell lines; settings: Homo sapiens, MDA-MB-468
Method: as §1

KB-8-5-11 = test: cells; parameters: SRB anti-proliferation assay against a panel of human tumour cell lines
Method: as §1

MCF-7/ADR = test: cells; parameters: SRB anti-proliferation assay against a panel of human tumour cell lines; settings: Homo sapiens, NCI/ADR-RES
Method: as §1

SGC-7901 = test: cells; parameters: SRB anti-proliferation assay against a panel of human tumour cell lines; settings: Homo sapiens, SGC-7901
Method: as §1

MKN-28 = test: cells; parameters: SRB anti-proliferation assay against a panel of human tumour cell lines; settings: Homo sapiens, MKN-28
Method: as §1

LOVO = test: cells; parameters: SRB anti-proliferation assay against a panel of human tumour cell lines; settings: Homo sapiens, LoVo
Method: as §1

HCT-116 = test: cells; parameters: SRB anti-proliferation assay against a panel of human tumour cell lines; settings: Homo sapiens, HCT-116
Method: as §1

KB-3-1 = test: cells; parameters: SRB anti-proliferation assay against a panel of human tumour cell lines; settings: Homo sapiens, KB 3-1
Method: as §1

K562/G01 = test: cells; parameters: SRB anti-proliferation assay against a panel of human tumour cell lines; settings: Homo sapiens, K562
Method: as §1

KB-V1 = test: cells; parameters: SRB anti-proliferation assay against a panel of human tumour cell lines; settings: Homo sapiens, KB-V1
Method: as §1

HT-29 = test: cells; parameters: SRB anti-proliferation assay against a panel of human tumour cell lines; settings: Homo sapiens, HT-29
Method: as §1

Rh30/rapa = test: cells; parameters: SRB anti-proliferation assay against a panel of human tumour cell lines; settings: Rh30
Method: as §1

U2OS = test: cells; parameters: SRB anti-proliferation assay against a panel of human tumour cell lines; settings: Homo sapiens, U2OS
Method: as §1

SK-OV-3 = test: cells; parameters: SRB anti-proliferation assay against a panel of human tumour cell lines; settings: Homo sapiens, SK-OV-3
Method: as §1

HL60/MX2 = test: cells; parameters: SRB anti-proliferation assay against a panel of human tumour cell lines; settings: Homo sapiens, HL60/MX2
Method: as §1

K562 = test: cells; parameters: SRB anti-proliferation assay against a panel of human tumour cell lines; settings: Homo sapiens, K562
Method: as §1

HL60 = test: cells; parameters: SRB anti-proliferation assay against a panel of human tumour cell lines; settings: Homo sapiens, HL-60
Method: as §1

PC3 = test: cells; parameters: SRB anti-proliferation assay against a panel of human tumour cell lines; settings: Homo sapiens, PC-3; read-out: IC50 (μM) S9
Method: as §1

Hela = test: cells; parameters: SRB anti-proliferation assay against a panel of human tumour cell lines; settings: Homo sapiens, HeLa; read-out: IC50 (μM) S9
Method: as §1

MCF-7 = test: cells; parameters: SRB anti-proliferation assay against a panel of human tumour cell lines; settings: Homo sapiens, MCF7; read-out: IC50 (μM) S9
Method: as §1

BEL-7402 = test: cells; parameters: SRB anti-proliferation assay against a panel of human tumour cell lines; settings: Homo sapiens, Bel-7402; read-out: IC50 (μM) S9
Method: as §1

OV-CAR-5 = test: cells; parameters: SRB anti-proliferation assay against a panel of human tumour cell lines; settings: Homo sapiens, OVCAR-5; read-out: IC50 (μM) S9
Method: as §1

K562/A02 = test: cells; parameters: SRB anti-proliferation assay against a panel of human tumour cell lines; settings: Homo sapiens, K562/A02; read-out: IC50 (μM) S9
Method: as §1

Rh1 = test: cells; parameters: SRB anti-proliferation assay against a panel of human tumour cell lines; settings: Homo sapiens, RH-1; read-out: IC50 (μM) S9
Method: as §1

MKN-45 = test: cells; parameters: SRB anti-proliferation assay against a panel of human tumour cell lines; settings: Homo sapiens, MKN-45; read-out: IC50 (μM) S9
Method: as §1

KB-8-5 = test: cells; parameters: SRB anti-proliferation assay against a panel of human tumour cell lines; settings: read-out: IC50 (μM) S9
Method: as §1

tubulin = biological target: T1, tubulin; test: SPR (Biacore); supported by colchicine fluorescence competition, polymerization of purified pork tubulin and CD; type: binding, Sus scrofa
T1 construct: gene TUBB; purified tubulin (Cytoskeleton, Denver) immobilized on CM5 chip; with alpha-tubulin

Compound: COC[C@H]1OC(=O)c2coc3c2[C@@]1(C)C1=C(C3=O)[C@@H]2CCC(=O)[C@@]2(C)C[C@H]1OC(C)=O [wortmannin]
IC50 (Hep-G2; read-out: IC50 (μM) wortmannin): 12.3 ± 2.6 µM | IC50 (NCI-H23; read-out: IC50 (μM) wortmannin): 5.57 ± 1.15 µM | IC50 (Rh30; read-out: IC50 (μM) wortmannin): 11 ± 3.02 µM | IC50 (A549; read-out: IC50 (μM) wortmannin): 9.33 ± 6.1 µM | IC50 (MDA-MB-468; read-out: IC50 (μM) wortmannin): 29.3 ± 6.6 µM | IC50 (KB-8-5-11; read-out: IC50 (μM) wortmannin): 15.7 ± 4.1 µM | IC50 (MCF-7/ADR; read-out: IC50 (μM) wortmannin): 47.2 ± 6.45 µM | IC50 (SGC-7901; read-out: IC50 (μM) wortmannin): 3.94 ± 1.74 µM | IC50 (MKN-28; read-out: IC50 (μM) wortmannin): 12.8 ± 2.8 µM | IC50 (LOVO; read-out: IC50 (μM) wortmannin): 12.2 ± 0.42 µM | IC50 (HCT-116; read-out: IC50 (μM) wortmannin): 41.5 ± 4.5 µM | IC50 (KB-3-1; read-out: IC50 (μM) wortmannin): 27.2 ± 3.2 µM | IC50 (K562/G01; read-out: IC50 (μM) wortmannin): 10.4 ± 4.52 µM | IC50 (KB-V1; read-out: IC50 (μM) wortmannin): 16.8 ± 2.2 µM | IC50 (HT-29; read-out: IC50 (μM) wortmannin): 18 ± 2.4 µM | IC50 (Rh30/rapa; read-out: IC50 (μM) wortmannin): 0.73 ± 0.51 µM | IC50 (U2OS; read-out: IC50 (μM) wortmannin): 26.7 ± 4.31 µM | IC50 (SK-OV-3; read-out: IC50 (μM) wortmannin): 18 ± 6.3 µM | IC50 (HL60/MX2; read-out: IC50 (μM) wortmannin): 1.47 ± 0.6 µM | IC50 (K562; read-out: IC50 (μM) wortmannin): 54.8 ± 6.3 µM | IC50 (HL60; read-out: IC50 (μM) wortmannin): 7.55 ± 2.84 µM

IC50 (Hep-G2; read-out: IC50 (μM) S9): 4.55 ± 1.8 µM | IC50 (NCI-H23; read-out: IC50 (μM) S9): 9.02 ± 0.05 µM | IC50 (A549; read-out: IC50 (μM) S9): 14.8 ± 2.2 µM | IC50 (PC3): 5.34 ± 1.39 µM | IC50 (Hela): 6.36 ± 1.51 µM | IC50 (MDA-MB-468; read-out: IC50 (μM) S9): 14.1 ± 4.6 µM | IC50 (KB-8-5-11; read-out: IC50 (μM) S9): 14.9 ± 1.3 µM | IC50 (MCF-7/ADR; read-out: IC50 (μM) S9): 5.73 ± 1.68 µM | IC50 (SGC-7901; read-out: IC50 (μM) S9): 11.6 ± 2.41 µM | IC50 (MCF-7): 4.86 ± 1.34 µM | IC50 (MKN-28; read-out: IC50 (μM) S9): 2.38 ± 0.39 µM | IC50 (LOVO; read-out: IC50 (μM) S9): 5.05 ± 0.5 µM | IC50 (HCT-116; read-out: IC50 (μM) S9): 19.6 ± 1.9 µM | IC50 (BEL-7402): 11.8 ± 1.6 µM | IC50 (KB-3-1; read-out: IC50 (μM) S9): 20.2 ± 3.8 µM | IC50 (K562/G01; read-out: IC50 (μM) S9): 2.17 µM | IC50 (KB-V1; read-out: IC50 (μM) S9): 13.3 ± 2.2 µM | IC50 (K562/A02): 2.5 ± 0.01 µM | IC50 (HT-29; read-out: IC50 (μM) S9): 5.88 ± 0.28 µM | IC50 (U2OS; read-out: IC50 (μM) S9): 5.9 ± 0.38 µM | IC50 (SK-OV-3; read-out: IC50 (μM) S9): 25.5 ± 0.1 µM | IC50 (MKN-45): 2.62 ± 0.26 µM | IC50 (HL60/MX2; read-out: IC50 (μM) S9): 2.41 ± 1.28 µM | IC50 (K562; read-out: IC50 (μM) S9): 2.2 ± 0.33 µM | IC50 (KB-8-5): 28.8 ± 7.3 µM | IC50 (HL60; read-out: IC50 (μM) S9): 2.25 ± 0.74 µM | Kd (tubulin): 11.1 µM
Compound: C=C1CC(Cn2c(-c3ccccc3)cc3cc(OCOC)ccc32)OC1=O (stereo not shown) [S9]
IC50 (Rh30; read-out: IC50 (μM) S9): 3.24 ± 1.2 µM | IC50 (OV-CAR-5): 15.4 ± 2.9 µM | IC50 (Rh30/rapa; read-out: IC50 (μM) S9): 3.85 ± 0.95 µM | IC50 (Rh1): 6.14 ± 0.05 µM
